From patent US9988400B2 (Genentech, Inc., priority 2013, dated 2018)

Target: T1, HEK cells stably transfected with tetracycline inducible hNR1 and hNR2A (Homo sapiens, UniProt Q05586+Q12879)
T1 construct: expressed in transfected cells; host or cells: HEK cells, stably transfected, tetracycline/doxycycline inducible
Experiment: Assay 1: Cell-Based Assay, cytosolic calcium response to positive allosteric modulators (with 30 μM glycine and 300 nM L-glutamate, EC30)
Details: Table 2; for EC50: cytosolic calcium response, with 30 μM glycine and 300 nM L-glutamate (EC30), — = no plateau was reached; for Max %: responses scaled relative to 100 μM L-glutamate maximal response (100%) and 0 μM L-glutamate (0%)
Summary of the method: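 Cells induced 24 h with 7.5 μg mL^−1 doxycycline plus 500 μM (+)-ketamine, loaded 60 min at 37 °C with calcium dye in Mg-free HBSS (1.8 mM Ca, probenecid, 10 μM (+)-ketamine, pH 7.15). Peak RFU over 5 min after compound addition, scaled to 100 μM L-glutamate (100%) and 0 μM (0%); four-parameter Hill fit for EC50, max % if no plateau.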

T1 sequence (Q12879 23-1464, other chains not shown): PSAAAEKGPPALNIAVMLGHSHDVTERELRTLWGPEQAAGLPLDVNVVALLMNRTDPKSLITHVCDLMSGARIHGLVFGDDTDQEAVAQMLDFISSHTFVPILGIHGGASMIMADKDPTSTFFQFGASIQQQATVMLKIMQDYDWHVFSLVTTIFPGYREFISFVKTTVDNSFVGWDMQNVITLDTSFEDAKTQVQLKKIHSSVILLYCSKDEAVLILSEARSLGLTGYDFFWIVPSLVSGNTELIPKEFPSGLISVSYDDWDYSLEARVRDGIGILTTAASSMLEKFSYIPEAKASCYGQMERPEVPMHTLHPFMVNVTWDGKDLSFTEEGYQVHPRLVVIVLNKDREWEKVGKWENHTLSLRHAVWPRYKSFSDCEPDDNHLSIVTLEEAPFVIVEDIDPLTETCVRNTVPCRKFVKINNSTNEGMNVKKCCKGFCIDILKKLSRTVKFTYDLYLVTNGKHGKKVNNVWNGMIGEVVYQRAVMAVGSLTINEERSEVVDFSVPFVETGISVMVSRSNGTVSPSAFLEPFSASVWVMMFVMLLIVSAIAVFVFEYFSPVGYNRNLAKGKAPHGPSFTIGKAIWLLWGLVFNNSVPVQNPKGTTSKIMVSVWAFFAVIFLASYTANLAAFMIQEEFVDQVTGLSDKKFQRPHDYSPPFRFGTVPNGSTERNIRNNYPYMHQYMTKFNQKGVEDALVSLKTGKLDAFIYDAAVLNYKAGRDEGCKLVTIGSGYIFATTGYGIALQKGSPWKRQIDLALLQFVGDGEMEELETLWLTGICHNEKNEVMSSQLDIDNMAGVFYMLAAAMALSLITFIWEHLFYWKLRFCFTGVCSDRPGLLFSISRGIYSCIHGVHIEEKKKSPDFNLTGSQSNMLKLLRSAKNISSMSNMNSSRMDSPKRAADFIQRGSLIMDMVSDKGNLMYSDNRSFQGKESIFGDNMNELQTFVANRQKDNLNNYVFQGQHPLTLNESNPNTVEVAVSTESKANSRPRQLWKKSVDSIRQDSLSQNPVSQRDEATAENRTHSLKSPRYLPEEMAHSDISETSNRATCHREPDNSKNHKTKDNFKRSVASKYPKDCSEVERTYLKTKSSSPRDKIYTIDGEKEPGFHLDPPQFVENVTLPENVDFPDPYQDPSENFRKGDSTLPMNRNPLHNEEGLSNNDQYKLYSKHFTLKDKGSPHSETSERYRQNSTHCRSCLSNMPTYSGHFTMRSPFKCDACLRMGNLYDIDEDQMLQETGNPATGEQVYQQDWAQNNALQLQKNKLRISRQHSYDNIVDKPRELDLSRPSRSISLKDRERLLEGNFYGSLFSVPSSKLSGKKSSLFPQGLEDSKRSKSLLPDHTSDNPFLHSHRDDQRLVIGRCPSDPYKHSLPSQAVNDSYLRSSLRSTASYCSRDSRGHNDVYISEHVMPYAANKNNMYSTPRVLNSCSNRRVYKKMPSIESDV

EC50 | Max % | SMILES
2000 nM | 159% | CCN(Cc1cc(=O)n2c(Cl)c(C)sc2n1)c1ccc(F)cc1 [Example 11.1, 3-chloro-7-[[ethyl(4-fluorophenyl)amino]methyl]-2-methyl-5H-[1,3]thiazolo[3,2-a]pyrimidin-5-one]
 | 107% | CCN(Cc1cc(=O)n2c(F)c(C)sc2n1)c1ccc(F)cc1 [Example 11.2, 7-[(N-ethyl-4-fluoro-anilino)methyl]-3-fluoro-2-methyl-thiazolo[3,2-a]pyrimidin-5-one]
3200 nM | 132% | CCN(Cc1cc(=O)n2cc(C)sc2n1)c1ccc(F)cc1 [Example 11.3, 7-[(N-ethyl-4-fluoro-anilino)methyl]-2-methyl-thiazolo[3,2-a]pyrimidin-5-one]
 | 103% | CCN(Cc1cc(=O)n2c(I)c(C)sc2n1)c1ccc(F)cc1 [Example 11.4, 7-[(N-ethyl-4-fluoro-anilino)methyl]-3-iodo-2-methyl-thiazolo[3,2-a]pyrimidin-5-one]
4600 nM | 167% | CCN(Cc1cc(=O)n2c(Cl)csc2n1)c1ccc(F)cc1 [Example 11.5, 3-chloro-7-[(N-ethyl-4-fluoro-anilino)methyl]thiazolo[3,2-a]pyrimidin-5-one]
5000 nM | 133% | CCN(Cc1cc(=O)n2cc(C)sc2n1)c1ccccc1 [Example 11.6, 7-[(N-ethylanilino)methyl]-2-methyl-thiazolo[3,2-a]pyrimidin-5-one]
723 nM | 166% | CCN(Cc1cc(=O)n2c(C(O)CCO)c(C)sc2n1)c1ccc(F)cc1 (stereo not shown) [Example 12.1, 3-(1,3-dihydroxypropyl)-7-[(N-ethyl-4-fluoro-anilino)methyl]-2-methyl-thiazolo[3,2-a]pyrimidin-5-one]
270 nM | 192% | CCN(Cc1cc(=O)n2c(C(F)CCO)c(C)sc2n1)c1ccc(F)cc1 (stereo not shown) [Example 12.2, 7-[(N-ethyl-4-fluoro-anilino)methyl]-3-(1-fluoro-3-hydroxy-propyl)-2-methyl-thiazolo[3,2-a]pyrimidin-5-one]
974 nM | 153% | CCN(Cc1cc(=O)n2c(C(O)CO)c(C)sc2n1)c1ccc(F)cc1 (stereo not shown) [Example 12.5, 3-(1,2-dihydroxyethyl)-7-[(N-ethyl-4-fluoro-anilino)methyl]-2-methyl-thiazolo[3,2-a]pyrimidin-5-one]
434 nM | 161% | CCN(Cc1cc(=O)n2c(CCCO)c(C)sc2n1)c1ccc(F)cc1 [Example 13.1, 7-[(N-ethyl-4-fluoro-anilino)methyl]-3-(3-hydroxypropyl)-2-methyl-thiazolo[3,2-a]pyrimidin-5-one]

The next lines start with the molecule.

SMILES | EC50 | Max %
CCN(Cc1cc(=O)n2c(C(C)=O)c(C)sc2n1)c1ccc(F)cc1 [Example 10.3, 3-acetyl-7-[[ethyl(4-fluorophenyl)amino]methyl]-2-methyl-5H-[1,3]thiazolo[3,2-a]pyrimidin-5-one] | 535 nM | 177%
CCN(Cc1cc(=O)n2c(C(=O)NC)c(C)sc2n1)c1ccc(F)cc1 [Example 10.4, 7-[(N-ethyl-4-fluoro-anilino)methyl]-N,2-dimethyl-5-oxo-thiazolo[3,2-a]pyrimidine-3-carboxamide] | 593 nM | 186%
CCN(Cc1cc(=O)n2c(C(C)(C)O)c(C)sc2n1)c1ccc(F)cc1 [Example 10.5, 7-[(N-ethyl-4-fluoro-anilino)methyl]-3-(1-hydroxy-1-methyl-ethyl)-2-methyl-thiazolo[3,2-a]pyrimidin-5-one] | 495 nM | 158%
CCN(Cc1cc(=O)n2c(C(C)O)c(C)sc2n1)c1ccc(F)cc1 (stereo not shown) [Example 10.6, 7-[(N-ethyl-4-fluoro-anilino)methyl]-3-(1-hydroxyethyl)-2-methyl-thiazolo[3,2-a]pyrimidin-5-one] | 548 nM | 176%
CCN(Cc1cc(=O)n2c(CN(C)C)c(C)sc2n1)c1ccc(F)cc1 [Example 10.7, 3-[(dimethylamino)methyl]-7-[[ethyl(4-fluorophenyl)amino]methyl]-2-methyl-5H-[1,3]thiazolo[3,2-a]pyrimidin-5-one] | 23400 nM | 127%
CCN(Cc1cc(=O)n2c(CN3CCC3)c(C)sc2n1)c1ccc(F)cc1 [Example 10.8, 3-(azetidin-1-ylmethyl)-7-[(N-ethyl-4-fluoro-anilino)methyl]-2-methyl-thiazolo[3,2-a]pyrimidin-5-one] |  | 63.5%
CCN(Cc1cc(=O)n2c(CN3CCCC3)c(C)sc2n1)c1ccc(F)cc1 [Example 10.9, 7-[(N-ethyl-4-fluoro-anilino)methyl]-2-methyl-3-(pyrrolidin-1-ylmethyl)thiazolo[3,2-a]pyrimidin-5-one] |  | 72.1%
CCN(Cc1cc(=O)n2c(CN3CC(O)C3)c(C)sc2n1)c1ccc(F)cc1 [Example 10.10, 7-[(N-ethyl-4-fluoro-anilino)methyl]-3-[(3-hydroxyazetidin-1-yl)methyl]-2-methyl-thiazolo[3,2-a]pyrimidin-5-one] | 18800 nM | 132%
CCN(Cc1cc(=O)n2c(C(O)C(F)(F)F)c(C)sc2n1)c1ccc(F)cc1 (stereo not shown) [Example 10.11, 7-[(N-ethyl-4-fluoro-anilino)methyl]-2-methyl-3-(2,2,2-trifluoro-1-hydroxy-ethyl)thiazolo[3,2-a]pyrimidin-5-one] | 1200 nM | 167%
CCN(Cc1cc(=O)n2c(CO)c(C)sc2n1)c1ccc(F)cc1 [Example 10.12, 7-((ethyl(4-fluorophenyl)amino)methyl)-3-(hydroxymethyl)-2-methyl-5H-thiazolo[3,2-a]pyrimidin-5-one] | 2100 nM | 149%
CCN(Cc1cc(=O)n2c(COC)c(C)sc2n1)c1ccc(F)cc1 [Example 10.13, 7-[[ethyl(4-fluorophenyl)amino]methyl]-3-(methoxymethyl)-2-methyl-5H-[1,3]thiazolo[3,2-a]pyrimidin-5-one] | 345 nM | 165%
CCN(Cc1cc(=O)n2c(Cn3cccn3)c(C)sc2n1)c1ccc(F)cc1 [Example 10.14, 7-[[Ethyl(4-fluorophenyl)amino]methyl]-2-methyl-3-(1H-pyrazol-1-ylmethyl)-5H-[1,3]thiazolo[3,2-a]pyrimidin-5-one] | 1500 nM | 172%
CCN(Cc1cc(=O)n2c(CS(C)(=O)=O)c(C)sc2n1)c1ccc(F)cc1 [Example 10.15, 7-[(N-ethyl-4-fluoro-anilino)methyl]-2-methyl-3-(methylsulfonylmethyl)thiazolo[3,2-a]pyrimidin-5-one] | 1300 nM | 156%
CCOCc1c(C)sc2nc(CN(CC)c3ccc(F)cc3)cc(=O)n12 [Example 10.16, 3-(ethoxymethyl)-7-[(N-ethyl-4-fluoro-anilino)methyl]-2-methyl-thiazolo[3,2-a]pyrimidin-5-one] | 2700 nM | 147%
CCN(Cc1cc(=O)n2c(CC#N)c(C)sc2n1)c1ccc(F)cc1 [Example 10.17, 2-[7-[(N-ethyl-4-fluoro-anilino)methyl]-2-methyl-5-oxo-thiazolo[3,2-a]pyrimidin-3-yl]acetonitrile] | 1200 nM | 174%
CCN(Cc1cc(=O)n2c(C(C)(C)C)csc2n1)c1ccc(F)cc1 [Example 10.18, 3-tert-butyl-7-[(N-ethyl-4-fluoro-anilino)methyl]thiazolo[3,2-a]pyrimidin-5-one] | 16900 nM | 88.2%
CCN(Cc1cc(=O)n2c(C(C)(C)O)csc2n1)c1ccc(F)cc1 [Example 10.19, 7-[(N-ethyl-4-fluoro-anilino)methyl]-3-(1-hydroxy-1-methyl-ethyl)thiazolo[3,2-a]pyrimidin-5-one] | 837 nM | 165%
CCN(Cc1cc(=O)n2c(C(C)O)csc2n1)c1ccc(F)cc1 (stereo not shown) [Example 10.20, 7-[(N-ethyl-4-fluoro-anilino)methyl]-3-(1-hydroxyethyl)thiazolo[3,2-a]pyrimidin-5-one] | 2200 nM | 178%
CCN(Cc1cc(=O)n2c(CN3CCC34COC4)c(C)sc2n1)c1ccc(F)cc1 [Example 10.21, 7-[(N-ethyl-4-fluoro-anilino)methyl]-2-methyl-3-(6-oxa-1-azaspiro[3.3]heptan-1-ylmethyl)thiazolo[3,2-a]pyrimidin-5-one] |  | 117%
CCN(Cc1cc(=O)n2c(CNCCO)c(C)sc2n1)c1ccc(F)cc1 [Example 10.22, 7-[(N-ethyl-4-fluoro-anilino)methyl]-3-[(2-hydroxyethylamino)methyl]-2-methyl-thiazolo[3,2-a]pyrimidin-5-one] | 7500 nM | 156%
CCN(Cc1cc(=O)n2c(CO)c(C)sc2n1)c1cccc(C#N)c1 [Example 10.23, 3-(ethyl((3-(hydroxymethyl)-2-methyl-5-oxo-5H-thiazolo[3,2-a]pyrimidin-7-yl)methyl)amino)benzonitrile] | 22900 nM | 169%
CCN(Cc1cc(=O)n2c(COC)c(C)sc2n1)c1cccc(C#N)c1 [Example 10.24, 3-[ethyl-[[3-(methoxymethyl)-2-methyl-5-oxo-thiazolo[3,2-a]pyrimidin-7-yl]methyl]amino]benzonitrile] | 8900 nM | 160%
CCN(Cc1cc(=O)n2c(CSC)c(C)sc2n1)c1ccc(F)cc1 [Example 10.25, 7-((ethyl(4-fluorophenyl)amino)methyl)-2-methyl-3-((methylthio)methyl)-5H-thiazolo[3,2-a]pyrimidin-5-one] | 345 nM | 165%
